Here are results for 37 compounds from the NIST ThermoML archive (doi:10.1021/je050544m).

A short description of the data set: activity coefficient (dimensionless); of the first substance listed, at infinite dilution; xn = mol fraction of the nth substance listed. The conditions noted are these: 101 kPa, Liquid, Chromatography, x1 = 0.

Numbers after ± are expanded uncertainties.

Regarding `CCCCCC` [hexane] + CCCCn1cc[n+](C)c1.F[B-](F)(F)F, the activity coefficient reads like this: (303 K) 93.4 ± 9.8; (323 K) 76.5 ± 8.1; (343 K) 67.5 ± 7.1.

On to `ClC=C(Cl)Cl` [trichloroethene] + CCn1cc[n+](C)c1.F[B-](F)(F)F, for which the activity coefficient runs as follows: (323 K) 3.66 ± 0.38; (343 K) 3.79 ± 0.4.

Regarding `ClC(Cl)(Cl)Cl` [tetrachloromethane] + CCCCCCCC[n+]1ccn(C)c1.F[B-](F)(F)F, the activity coefficient was found to be 2.39 ± 0.25 (323 K) and 2.62 ± 0.28 (343 K).

`CC(C)=O` [acetone] + CCCCCCn1cc[n+](C)c1.F[B-](F)(F)F: the activity coefficient is 0.85 ± 0.09 (323 K) and 0.91 ± 0.09 (343 K).

On to `CCOC(C)=O` [ethyl acetate] + CCCCCCn1cc[n+](C)c1.F[B-](F)(F)F, for which the activity coefficient reads like this: (323 K) 5.58 ± 0.59; (343 K) 5.48 ± 0.58.

As to `CCCCCC` [hexane] + CCCCCCCC[n+]1ccn(C)c1.F[B-](F)(F)F, the activity coefficient is 13.2 ± 1.4 (303 K), 12.8 ± 1.4 (323 K) and 12.2 ± 1.3 (343 K).

`C=CCCCC` [hex-1-ene] + CCCCCCn1cc[n+](C)c1.F[B-](F)(F)F: the activity coefficient (303 K) stood at 15.9 ± 1.7, the activity coefficient (323 K) was 14.8 ± 1.6 and the activity coefficient (343 K) turned out to be 14.8 ± 1.6.

Consider `C1CCCCC1` [cyclohexane] + CCCCn1cc[n+](C)c1.F[B-](F)(F)F, for which the activity coefficient (303 K) amounted to 44.9 ± 4.7, the activity coefficient (323 K) is 38.4 ± 4 and the activity coefficient (343 K) was determined as 32.8 ± 3.5.

On to `CCC(C)=O` [butanone] + CCCCn1cc[n+](C)c1.F[B-](F)(F)F, for which the activity coefficient (323 K) was 1.64 ± 0.17 and the activity coefficient (343 K) was found to be 1.72 ± 0.18.

`CC(C)CC(C)(C)C` [2,2,4-trimethylpentane] + CCCCn1cc[n+](C)c1.F[B-](F)(F)F: the activity coefficient is, setting by setting: (303 K) 145 ± 15; (323 K) 127 ± 13; (343 K) 125 ± 13.

Regarding `c1ccccc1` [benzene] + CCn1cc[n+](C)c1.F[B-](F)(F)F, the activity coefficient by setting is: (303 K) 2.42 ± 0.25; (323 K) 2.51 ± 0.26; (343 K) 2.47 ± 0.26.

Consider `CCOC(C)=O` [ethyl acetate] + CCCCn1cc[n+](C)c1.F[B-](F)(F)F, for which the activity coefficient was determined as 2.86 ± 0.3 (323 K) and 2.99 ± 0.31 (343 K).

For `ClCCCl` [1,2-dichloroethane] + CCCCCCn1cc[n+](C)c1.F[B-](F)(F)F, the activity coefficient is, setting by setting: (323 K) 1.06 ± 0.11; (343 K) 1.19 ± 0.12.

For the compound `c1ccccc1` [benzene] + CCCCCCCC[n+]1ccn(C)c1.F[B-](F)(F)F, the activity coefficient (303 K) stood at 1.28 ± 0.13, the activity coefficient (323 K) turned out to be 1.29 ± 0.13 and the activity coefficient (343 K) was determined as 1.29 ± 0.13.

With `ClCCCl` [1,2-dichloroethane] + CCn1cc[n+](C)c1.F[B-](F)(F)F, the activity coefficient came to 1.32 ± 0.14 (323 K) and 1.37 ± 0.14 (343 K).

On to `CCCCCCC` [heptane] + CCCCCCn1cc[n+](C)c1.F[B-](F)(F)F, for which the activity coefficient turned out to be 47.7 ± 5 (303 K), 39.9 ± 4.2 (323 K) and 33.6 ± 3.5 (343 K).

Turning to `c1ccccc1` [benzene] + CCCCCCn1cc[n+](C)c1.F[B-](F)(F)F, the activity coefficient turned out to be 1.63 ± 0.17 (303 K), 1.65 ± 0.17 (323 K) and 1.68 ± 0.18 (343 K).

On to `CO` [methanol] + CCCCn1cc[n+](C)c1.F[B-](F)(F)F, for which the activity coefficient is, setting by setting: (303 K) 1.32 ± 0.14; (323 K) 1.21 ± 0.12; (343 K) 1.07 ± 0.11.

Regarding `C1CCCCC1` [cyclohexane] + CCn1cc[n+](C)c1.F[B-](F)(F)F, the activity coefficient (303 K) stood at 53.7 ± 5.7, the activity coefficient (323 K) stood at 46.2 ± 4.9 and the activity coefficient (343 K) turned out to be 38.9 ± 4.1.

`CC(C)=O` [acetone] + CCCCn1cc[n+](C)c1.F[B-](F)(F)F: the activity coefficient by setting is: (323 K) 1.05 ± 0.11; (343 K) 1.11 ± 0.11.

For `CCCCCCC` [heptane] + CCCCCCCC[n+]1ccn(C)c1.F[B-](F)(F)F, the activity coefficient is, setting by setting: (303 K) 16.7 ± 1.8; (323 K) 16.3 ± 1.7; (343 K) 15.2 ± 1.6.

For `CO` [methanol] + CCCCCCn1cc[n+](C)c1.F[B-](F)(F)F, the activity coefficient (303 K) is 1.19 ± 0.12, the activity coefficient (323 K) was 1.08 ± 0.11 and the activity coefficient (343 K) is 0.99 ± 0.1.

Regarding `CCC(C)=O` [butanone] + CCn1cc[n+](C)c1.F[B-](F)(F)F, the activity coefficient (323 K) was 1.66 ± 0.17 and the activity coefficient (343 K) came to 1.77 ± 0.18.

On to `CC(C)O` [propan-2-ol] + CCCCCCn1cc[n+](C)c1.F[B-](F)(F)F, for which the activity coefficient by setting is: (323 K) 1.61 ± 0.17; (343 K) 1.57 ± 0.16.

Consider `Cc1ccccc1` [toluene] + CCCCCCn1cc[n+](C)c1.F[B-](F)(F)F, for which, where the note is “343 K”, the activity coefficient came out at 2.61 ± 0.27.

For the compound `CCCCCCC` [heptane] + CCn1cc[n+](C)c1.F[B-](F)(F)F, the activity coefficient came out at 202 ± 21 (303 K), 173 ± 18 (323 K) and 139 ± 15 (343 K).

With `C=CCCCC` [hex-1-ene] + CCCCCCCC[n+]1ccn(C)c1.F[B-](F)(F)F, the activity coefficient is 7.92 ± 0.83 (303 K), 7.51 ± 0.79 (323 K) and 7.42 ± 0.78 (343 K).

`CCc1ccccc1` [ethylbenzene] + CCCCCCn1cc[n+](C)c1.F[B-](F)(F)F: the activity coefficient reads like this: (323 K) 3.63 ± 0.38; (343 K) 4.05 ± 0.43.

As to `CCOCC` [diethyl ether] + CCCCn1cc[n+](C)c1.F[B-](F)(F)F, the activity coefficient (343 K) worked out at 8.05 ± 0.85.

For `C=CCCCC` [hex-1-ene] + CCCCn1cc[n+](C)c1.F[B-](F)(F)F, the activity coefficient reads like this: (303 K) 35.4 ± 3.7; (323 K) 32.2 ± 3.4; (343 K) 30.5 ± 3.2.

Consider `CCCCCC` [hexane] + CCCCCCn1cc[n+](C)c1.F[B-](F)(F)F, for which the activity coefficient came to 34.8 ± 3.7 (303 K), 29.6 ± 3.1 (323 K) and 26.1 ± 2.7 (343 K).

In the case of `ClC(Cl)Cl` [trichloromethane] + CCCCCCn1cc[n+](C)c1.F[B-](F)(F)F, the activity coefficient (323 K) came to 0.81 ± 0.08 and the activity coefficient (343 K) came to 0.92 ± 0.09.

As for `CCO` [ethanol] + CCCCCCn1cc[n+](C)c1.F[B-](F)(F)F, the activity coefficient runs as follows: (323 K) 1.47 ± 0.15; (343 K) 1.31 ± 0.13.

With `CCc1ccccc1` [ethylbenzene] + CCCCCCCC[n+]1ccn(C)c1.F[B-](F)(F)F, the activity coefficient by setting is: (323 K) 2.35 ± 0.25; (343 K) 2.66 ± 0.28.

For the compound `CCCO` [propan-1-ol] + CCCCn1cc[n+](C)c1.F[B-](F)(F)F, the activity coefficient stood at 2.64 ± 0.28 (323 K) and 2.28 ± 0.24 (343 K).

As for `C=CCCCC` [hex-1-ene] + CCn1cc[n+](C)c1.F[B-](F)(F)F, the activity coefficient runs as follows: (303 K) 46.2 ± 4.9; (323 K) 43.2 ± 4.5; (343 K) 36.6 ± 3.9.

For `CCCO` [propan-1-ol] + CCCCCCCC[n+]1ccn(C)c1.F[B-](F)(F)F, the activity coefficient is, setting by setting: (323 K) 1.44 ± 0.15; (343 K) 1.27 ± 0.13.
